According to US20050234043A1, “ACE inhibitor-vasopressin antagonist combinations” (priority 2000, published 2005):
Structures can show the parent of a compound that is named as a salt.

Key:
[1] = tested on: dogs with heart failure induced by rapid right ventricular pacing; experiment: Heart failure induced by rapid right ventricular pacing; type: in vivo; conditions: IV 0.1 mg/kg
[2] = tested on: dogs; conditions: dog, in vivo, iv, 2 mg/kg
[3] = tested on: rats; conditions: female rats, 13-week repeated oral dose
[4] = tested on: urinary output (V2 antagonism); experiment: Urinary output and osmolality in conscious dogs; type: in vivo
[5] = Oral pharmacokinetics in dog; type: in vivo
Source text: (§1) There is a marked food effect with absorption reduced by >50% in dogs after a meal.

[6] = tested on: bone marrow of rats; experiment: Clastogenicity in bone marrow of rats; type: in vivo
[7] = tested on: rats; experiment: Reproductive performance / fertility studies in rats; type: in vivo
[8] = tested on: bacteria; experiment: Mutagenicity in bacteria; type: cell-based
[9] = Oral pharmacokinetics in rat; type: in vivo
Source text: as §1

[10] = tested on: rats; experiment: Teratogenicity in rats; type: in vivo
[11] = tested on: AVP-induced platelet aggregation (V1A antagonist activity); experiment: AVP-induced platelet aggregation in Phase 1 subjects; type: in vivo, human; conditions: 20 mg/day orally or 2.5 mg IV
[12] = tested on: rats; conditions: rat, in vivo, iv, 2.5 mg/kg
[13] = tested on: AVP-induced dermal vasoconstriction; experiment: AVP-induced dermal vasoconstriction in Phase 1 subjects; type: in vivo, human; conditions: 50 mg IV
[14] = tested on: human lymphocytes; experiment: Clastogenicity in human lymphocytes in vitro; type: cell-based
[15] = tested on: patients with NYHA Class III/IV heart failure; experiment: Double-blind placebo-controlled IV dose-response study of cardiopulmonary hemodynamics in NYHA Class III/IV heart failure patients on ACE inhibitor background; type: in vivo, human; conditions: CHF patients
Description: These patients have advanced CHF/LV dysfunction. Patients must be receiving background therapy of diuretics, ACE inhibitors, and optionally digoxin and/or β-blocker; patients will be stratified as to whether they are receiving concomitant β-blocker treatment. […] Patients should take their daily dose of concomitant heart failure medications within 2 hours of catheter insertion. No additional doses of background heart failure medications should be administered during the study treatment phase. After insertion of a balloon-floatation pulmonary artery catheter, serial measurements will be obtained over an 8- to 18-hour baseline and stabilization period. […] The mean baseline PCWP in this study group was 24.2 mmHg. The mean baseline CI was 2.1 L/min/m^2. […] Fluid intake will be restricted to 250 mL every 2 hours (except at time of IV infusion) from time of insertion of Swan-Ganz catheter and throughout the treatment period. […] Serum electrolytes, BUN, creatinine, and serum osmolality will be measured at baseline and 4 and 12 hours posttreatment. Clinical laboratory and vasopressin plasma levels will be measured at baseline and 12 hours postdrug administration. […] Patients meeting baseline eligibility criteria (CI≦2.6 L/min/m^2; PCWP≧16 mmHg) on successive readings at least 30 minutes apart during 2 hours prior to study drug administration will enter the treatment phase. […] Clinical laboratory and vasopressin plasma levels will be measured 12 hours postdose. […] Serum electrolytes, BUN, creatinine, serum osmolality will be measured at 4 and 12 hours posttreatment. […] For this study, hemodynamic efficacy parameters of PCWP, CI, SVR, and PVR will be evaluated in terms of their response profile. The response profile will be assessed in terms of peak change, and AUC delimited by the parameter change from baseline and measurement times. […] If measurements are missing at certain times, the AUC will be calculated using all other available observations. Dose response over the treatment groups will be assessed for selected measures. […]

[16] = tested on: subjects; experiment: Safety in Phase 1 subjects; type: in vivo, human
Source text: Other adverse events included flushes, a sensation of cold extremities, abdominal complaints, abnormal stools, syncope, dizziness, palpitations, and postural hypotension. Three subjects who received YM087 and one subject who received placebo developed minor, reversible leukopenia. […] These observations were considered related to antagonism of V2 receptors and not a safety concern. Vital signs (blood pressure and heart rate) were unaffected by YM087.

[17] = tested on: rabbits; experiment: Teratogenicity in rabbits; type: in vivo
[18] = tested on: dogs; experiment: 2- and 13-week oral toxicity studies in dogs; type: in vivo
[19] = Pharmacokinetics in healthy subjects (Phase 1); conditions: human
[20] = tested on: AVP-induced pressor response (V1A antagonism); experiment: Antagonism of AVP-induced pressor response, oral, rats; type: in vivo
[21] = tested on: AVP-induced pressor response (V1A antagonism); experiment: Antagonism of AVP-induced pressor response, IV, dogs; type: in vivo
[22] = tested on: aquaretic action (V2-receptor antagonism); experiment: Aquaretic action in normal subjects; type: in vivo, human

Cc1nc2c([nH]1)-c1ccccc1N(C(=O)c1ccc(NC(=O)c3ccccc3-c3ccccc3)cc1)CC2 [YM087, N-[4-(2-methyl-,4,5,6-tetrahydrornidazo[4,5-d][1]benzazepin-6-ylcarbonyl)phenyl]biphenyl-2-carboxamide hydrochloride]
cardiac function [1]: significantly improved the depressed cardiac function
diuresis [1]: produced a water diuresis
toxicity [2]: No toxicity was observed
uterine weights [3]: decreased at all doses
urinary output ([4]; conscious dogs, oral 0.03 to 0.3 mg/kg, dose-related): increased urinary output
urinary osmolality ([4]; conscious dogs, oral 0.03 to 0.3 mg/kg, reduced from 1500): < 100 mOsm/kg H2O
effect on urinary sodium (Na) or potassium (K) excretion ([4]; unlike furosemide): little or no effect
time to peak concentrations [5]: 1 h
clastogenicity [6]: not clastogenic
female fertility ([7]; female rats, 100 mg/kg orally for 2 weeks prior to mating with untreated males): reduced fertility index, increased implantation loss, and decreased live fetuses
reproductive performance of male rats ([7]; male rats): did not affect
mutagenicity [8]: not mutagenic
time to peak concentrations [9]: 0.5 h
teratogenicity [10]: not teratogenic
AVP-induced platelet aggregation [11]: Inhibition
toxicity [12]: No toxicity was observed
AVP-induced dermal vasoconstriction [13]: Total inhibition
clastogenicity [14]: not clastogenic
pulmonary capillary wedge pressure (PCWP) ([15]; IV 10, 20 or 40 mg, 85% receiving ACE inhibitor, FIG. 1): significant reductions
right atrial pressure (RAP) ([15]; IV 10, 20 or 40 mg, 85% receiving ACE inhibitor, FIG. 2): significant reduction
hemodynamic effect as add-on therapy to ACE inhibitors ([15]; add-on to normal treatment with ACE inhibitors): surprisingly favorable hemodynamic effect
overall safety ([16]; approximately 250 subjects treated): no major safety concerns were identified
urinary and plasma osmolarity ([16]; at higher doses, with or without an increase in plasma sodium): urinary osmolarity decreased and plasma osmolarity increased
biochemical or hematological laboratory parameters ([16]; human, in vivo): No drug-related trend was observed
vital signs (blood pressure and heart rate) ([16]; human, in vivo): unaffected
serious adverse event ([16]; one patient with severe CHF, 80 mg/day for 4 days, relation to study drug could not be excluded): generalized tonic clonic seizure
number of subjects who developed minor, reversible leukopenia ([16]; one subject on placebo also): Three
most frequent adverse events ([16]; regardless of treatment association): mild or moderate thirst and mild headache
teratogenicity [17]: not teratogenic
peripheral blood counts ([18]; affected dogs, 13-week study): Decreased peripheral erythrocyte, leukocyte, and/or platelet counts
reversibility of bone marrow and peripheral blood changes ([18]; dogs): reversible
bone marrow histopathology ([18]; dogs, 2- and 13-week oral studies): Histopathologic changes in bone marrow were observed
half-life ([19]; plasma): 4 to 5 h
bioavailability ([19]; plasma, oral): 43 to 59%
Tmax ([19]; plasma, po): ~1 h
plasma levels on repeated dosing ([19]; repeated BID oral doses, 60 mg): unexpectedly high plasma levels after the second dose
dose that reduced the AVP response by 50% (ID50) [20]: 0.32 mg/kg
ID50, AVP-induced pressor response [21]: 0.026 mg/kg
duration of increased urine production rate postdosing ([22]; IV 50 mg/day): ≤ 6 h
duration of increased urine production rate postdosing ([22]; IV doses up to 250 μg/kg): up to 3 hours
tolerability of aquaretic effects ([22]; normal subjects, 120 mg QD or 60 mg BID orally or 50 mg IV): too uncomfortable in normal subjects to be tolerable
dose at which aquaretic action with decrease in urine osmolarity starts ([22]; normal subjects, IV): 0.05 mg/kg
dose at which aquaretic action with decrease in urine osmolarity starts ([22]; normal subjects, oral): 15 mg
